The subject of this experiment is normal, non-HF ovine model. Description: Right ventricle vs left ventricle contractility after a change, pressure max(dP/dt) as surrogate, heartbeat-by-heartbeat correlation. In kind it is in vivo. The note with it: max(dP/dt) as surrogate for contractility, calcium at 5 mL. The text has this: The correlation was a heartbeat-by-heartbeat analysis. Pressure measurements, taken by a Millar catheter comprising a MEMS pressure sensor, in units of max(dP/dt) was used as a surrogate for contractility.
The first change, a dobutamine injection, provided a very high contractility increase greater than 500%. The average correlation between right ventricle contractility and left ventricle contractility was very good at 0.91, where 1.00 is a perfect correlation. Accordingly, if a subject is given a dobutamine injection, measuring changes to right ventricle contractility can provide accurate information about changes to left ventricle contractility. The first change was repeated three times.
The second change, calcium injection at 5 mL, provided a contractility increase of about 20%. […] The average correlation between right ventricle contractility and left ventricle contractility using a Millar (MEMS) sensor on a catheter was very good at 0.91. The average correlation between right ventricle contractility and left ventricle contractility using a fluid-filled lumen of a Swan-Ganz catheter in communication with an external pressure sensor was also very good at 0.87. […]

Regarding calcium [Calcium Injection], the “Contractility % Increase” value was ~20%. Under “listed as calcium injection”, the “Contractility % Increase” value is listed as “about 20%”.

These data come from patent publication US12527519B2, “Neurostimulation devices and methods” (Cardionomix, Inc., priority 2016, dated 2026).
